Reference: patent US20060153785A1, “Moisturizers comprising one or more of gamma-polyglutamic acid (gamma-PGA, H form), gamma-polyglutamates and gamma-polyglutamate hydrogels for use in cosmetic or personal care products” (priority 2005, published 2006)

Experiments:
[1] = tested on: outside skin surface of the arm of a test panelist; experiment: Moisture retention of skin after peeling off facial moisture mask (capacitance, SHP88); assay type: in vivo, human (panelists); conditions: 5.0% moisturizer in facial moisture mask; mask film peeled off after 15 minutes; 23° C., RH 65%
Method: The species and proportions of the ingredients contained in the exemplified facial moisture mask formulation are listed in Table 5.
The samples of 0.2 grams from experimental example 4 were taken and evenly spread over an area of 25 cm^2 on the outside skin surface of the arm of a test panelist, and the film formation time was closely observed and recorded (see Characteristic Properties of N-Carboxybutyl Chitosan. Carbohydr. Polym. 11:307-320, 1989, Muzzarelli, R. A. A. et al.) at 23° C. under an environment of relative humidity (RH) of 65%. A group of 10 panelists participated in this test. In a separate experiment, the mask film formed after 15 minutes was peeled off, then the […] of the skin was measured at 23° C. under an environment of relative humidity of 65% with a probe of the Skin Analysis SHP88 of Courage ^+Khazaka Electronic Gmbh, Germany. The moisture retention of the skin was immediately measured at 23° C. under an environment of relative humidity of 65% with a probe of the Skin Analysis SHP88, and expressed in unit of capacitance increase ratio, %.

tyrosinase = experiment: Inhibition of tyrosinase activity (absorbency at 475 nm); assay type: biochemical; conditions: 1.0% sample
Method: Although the formation of black pigment melanin on skin is complicated, it is generally realized that tyrosine is oxidized to DOPA (Dihydroxy Phenyalanine) by the catalysis of tyrosinase from melansome of melanocyte. The DOPA is further oxidized and finally converted into colored melanin-protein complex. […] Determination of total absorbency at wavelength of 475 nm: To a 25 ml sample test tube, add 0.9 ml of 0.1M phosphate buffer solution (pH 6.8), 1 ml of γ-polyglutamate (Na^+ form) sample and 1 ml of 0.25 mg/ml tyrosine solution and mix well, then incubate at 37° C. for 10 minutes. […] Sample of the reaction solution is then taken for measuring the absorbency at 475 nm, and recorded as At. • b. Determination of the blank absorbance of tyrosinase solutuion: Replace 0.1 ml of buffer solution with tyrosinase solution, and repeat the same procedure in item (a), and record the absorbency at 475 nm as A1. • c. Replace 1 ml sample solution with buffer solution, and repeat the same procedure in item (a), and record the absorbance at 475 nm as Ab. • d. Determination of total blank absorbance of test solution: Replace 1 ml sample solution with buffer solution, and 0.1 ml of tyrosinase solution with buffer solution, and repeat the procedure in item (a), and record the absorbency at 475 nm as Ao. • e. […]

[2] = tested on: inside skin surface of a test panelist's arm; experiment: Water retention on skin after skin vital moisture cream (capacitance, Skin Analysis SHP88); assay type: in vivo, human (panelists); conditions: 5% moisturizer in cream

## CC(O)CCO (stereo not shown) [1,3-BG, 1,3-Butyl Glycol]
[1]
  Capacitance Increase Ratio: 73.2%

## O=c1cc(CO)occ1O [Kojic Acid]
tyrosinase
  Inhibition of Tyrosinase Activity: 100.0%

## CC(O)CO (stereo not shown) [Propylene Glycol]
[2]; time 0 min
  Capacitance Increase Ratio: 0%
[2]; time 5 min
  Capacitance Increase Ratio: 105%
[2]; time 10 min
  Capacitance Increase Ratio: 57%
[2]; time 20 min
  Capacitance Increase Ratio: 51%
[2]; time 40 min
  Capacitance Increase Ratio: 40%
[2]; time 80 min
  Capacitance Increase Ratio: 38%
[2]; time 120 min
  Capacitance Increase Ratio: 36%

## O=C1O[C@H]([C@@H](O)CO)C(O)=C1O [Vitamin C]
tyrosinase
  Inhibition of Tyrosinase Activity: 99.4%
